For data set [1], the system named is Aβ40 peptides generated from SH-SY5Y cells expressing amyloid β protein (SP4CT cells). Briefly: APP processing AlphaLisa assay, secreted Aβ40. The format is cell-based. The note with it: Homo sapiens, SH-SY5Y, average of at least >4 replicates, read-out: AB40 IC50 AVG. On the procedure: (§1) APP Processing (Assay Quantitates Secreted Aβ Analytes from Cell Lines):
(§2) The effect of compounds on the abundance of Aβ40 and Aβ42 peptides generated from SH-SY5Y cells expressing amyloid β protein (SP4CT cells) was determined by an AlphaLisa™ assay. Analogous to an ELISA assay, generation of signal in this AlphaLisa™ assay requires “donor” and “acceptor” beads to be brought in close proximity by specific antibody recognition of either Aβ40 or Aβ42 peptides. The assay was accomplished by removing media from compound-treated SP4CT cells to two different microplates, followed by the addition of donor beads conjugated with streptavidin binding a biotinylated anti-amyloid β monoclonal antibody (clone 4G8). Acceptor beads directly conjugated with anti-Aβ40 monoclonal antibody (G210) were added to one microplate and anti-Aβ42 monoclonal antibody (12F4) acceptor beads were added to the other. Abundance of Aβ40 and Aβ42 was directly proportional to the luminescent signal generated following excitation of donor beads by laser light.
For orientation: Bead proximity is the source of the signal in Alpha formats.

Data set [2] has as its system Aβ42 peptides generated from SH-SY5Y cells expressing amyloid β protein (SP4CT cells). The data set can be described thus: APP processing AlphaLisa assay, secreted Aβ42. The format is cell-based. The following applies: Homo sapiens, SH-SY5Y, average of at least >4 replicates, read-out: AB42 IC50 AVG. As to the method:
as §1, §2

Data set [3] has as its system gamma secretase-dependent cleavage of the Notch protein (NotchΔE) in HeLa cells. The data set can be described thus: Notch processing split-luciferase assay (Notch intracellular domain release). In kind it is cell-based. The following applies: Homo sapiens, HeLa, average of at least >4 replicates, read-out: Notch IC50 AVG. An excerpt: Notch Processing: (Assay Quantitates Notch Intracellular Domain Release in Cell Lines):
A “split-luciferase” assay is used to measure inhibition of gamma secretase-dependent cleavage of the Notch protein. In this assay, HeLa cells were made to express a Notch protein lacking its extracellular domain (NotchΔE) fused to an N-terminal fragment of luciferase. The same cells also expressed a C-terminal fragment of luciferase fused to the immunoglobulin J kappa recombination signal sequence binding protein (RBP). Upon NotchΔE cleavage by gamma secretase, a Notch intracellular domain (NICD)-N terminal luciferase protein is generated which translocates to the nucleus and binds the RBP-C terminal luciferase fusion, bringing two independently nonfunctional halves of luciferase together to form a functional luciferase enzyme. The activity of luciferase in these cells is directly proportional to the amount of gamma secretase-cleaved Notch. Luciferase activity is determined by the standard techniques of luciferin addition to lysed cells and measurement of total luminescence.

Data set [4] in a line: covalent protein binding assay with liver microsomes. The format is in vitro ADME. The note with it: radiolabeled compound incubated with human liver microsomes. As to the method: MRK-560 and Example 2 were tested in a covalent protein binding assay which is predictive of drug toxicity. The potential of drug candidates to cause covalent binding to proteins is evaluated by incubation of the radiolabeled version of the compound in question with liver microsomes. A semi-automated method based on Brandel Harvester technique is then used to measure the formation of covalent adducts of the test compound to liver proteins binding (Ref. Day et. al, J Pharmacol Toxicol Methods. 52, 278-85, 2005).
A general note: Microsomes from liver hold many membrane-bound enzymes, among them those of drug oxidation.

The target of data set [5] is T1, pregnane X receptor (PXR) (Homo sapiens, UniProt O75469).
T1 construct: expressed in transfected cells; host or cells: HEP G2
T1 sequence (O75469 1-434): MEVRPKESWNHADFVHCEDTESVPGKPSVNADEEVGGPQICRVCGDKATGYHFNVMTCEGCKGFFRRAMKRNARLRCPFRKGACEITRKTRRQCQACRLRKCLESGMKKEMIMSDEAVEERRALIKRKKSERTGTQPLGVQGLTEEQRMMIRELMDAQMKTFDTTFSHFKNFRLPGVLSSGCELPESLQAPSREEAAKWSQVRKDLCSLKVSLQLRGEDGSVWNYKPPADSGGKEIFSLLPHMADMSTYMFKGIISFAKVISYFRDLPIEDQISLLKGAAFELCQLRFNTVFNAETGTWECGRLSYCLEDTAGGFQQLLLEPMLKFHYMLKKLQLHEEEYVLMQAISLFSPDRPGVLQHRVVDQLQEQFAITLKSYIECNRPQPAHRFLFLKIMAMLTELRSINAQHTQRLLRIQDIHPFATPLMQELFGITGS
T1 sequence (P19793 1-462 partner): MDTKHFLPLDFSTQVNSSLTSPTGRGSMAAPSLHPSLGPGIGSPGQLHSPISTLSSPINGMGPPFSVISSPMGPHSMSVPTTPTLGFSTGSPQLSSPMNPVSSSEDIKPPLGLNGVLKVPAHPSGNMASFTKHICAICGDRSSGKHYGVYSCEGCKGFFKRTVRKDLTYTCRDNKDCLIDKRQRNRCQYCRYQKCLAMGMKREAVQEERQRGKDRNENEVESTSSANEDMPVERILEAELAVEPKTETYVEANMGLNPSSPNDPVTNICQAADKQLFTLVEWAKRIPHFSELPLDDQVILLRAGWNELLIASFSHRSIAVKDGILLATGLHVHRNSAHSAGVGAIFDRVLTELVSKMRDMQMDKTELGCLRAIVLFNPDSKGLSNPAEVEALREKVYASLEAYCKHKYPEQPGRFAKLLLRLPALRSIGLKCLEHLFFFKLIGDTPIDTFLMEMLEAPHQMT
The data set can be described thus: PXR assay (CYP3A4-SEAP transactivation assay, PCSTA). The format is cell-based. The note with it: for EC50: HEP G2 cells. An excerpt: The CYP3A4-SEAP transactivation assay (PCSTA) effectively and rapidly evaluates compounds for their potential to induce cytochrome P450 CYP3A (human CYP3A4 or rat CYP3A1). The reporter construct contains regulatory regions from the CYP3A4 gene positioned just upstream of a secreted alkaline phosphatase (SEAP) gene. The human PXR nuclear receptor has been modified at the 5′-end so that methionine is the initiating amino acid replacing leucine found in the wild-type sequence. HEP G2 cells are transfected with the PXR plasmid (human or rat) and the reporter plasmid. Read-out for the induction of CYP3A4 consists of a SEAP calorimetric assay with para-nitro-phenyl phosphate (pNPP) as the substrate. Five point dose-response curves in duplicate are then generated with each point corresponding to the rate of conversion of pNPP to pNP by SEAP. For the human PCSTA, rifampicin is used as the positive control and 100% induction is based upon the maximum induction produced by rifampicin at 10 μM.

Broadly, the IC50 is the point on the concentration scale where inhibition reaches its midpoint. The EC50 is the midpoint of the concentration-response curve.

Take `O=S(=O)(N[C@H]1C[C@@](c2cc(F)ccc2F)(S(=O)(=O)c2ccc(Cl)cc2)C1)C(F)(F)F` [Example 2, N-[cis-3-[(4-chlorophenyl)sulfonyl]-3-(2,5-difluorophenyl)cyclobutyl]-1,1,1-trifluoromethanesulfonamide]: the IC50 in data set [1] was 42.8 nM; in data set [2], 38.4 nM; in data set [3], 3480 nM. Besides, the “covalent protein binding (human microsomes)” value in data set [4] came out at 380 pmol/mg. Besides, in data set [5], the “PXR % Activation @ 10 uM” value is listed as 55.5%. Further, the midpoint of the response in data set [5], the EC50, lay at 3430 nM.
As for `O=S(=O)(N(CCOC1CCCCO1)[C@H]1C[C@@](c2cc(F)ccc2F)(S(=O)(=O)c2ccc(Cl)cc2)C1)C(F)(F)F` (stereo partly drawn) [Example 11, N-[cis-3-[(4-chlorophenyl)sulfonyl]-3-(2,5-difluorophenyl)cyclobutyl]-1,1,1-trifluoro-N-[2-(tetrahydro-2-pyran-2-yloxy)ethyl]methanesulfonamide], the IC50 in data set [1] came out at 43.4 nM; in data set [2], 36.9 nM; in data set [3], 2540 nM. The “PXR % Activation @ 10 uM” value in data set [5] was found to be 86.5%. Besides, the midpoint of the response in data set [5], the EC50, lay at 826 nM.
On to `N#Cc1ccc(F)cc1[C@]1(S(=O)(=O)c2ccc(Cl)cc2)C[C@@H](NS(=O)(=O)C(F)(F)F)C1` [Example 3, N-[cis-3-[(4-chlorophenyl)sulfonyl]-3-(2-cyano-5-fluorophenyl)cyclobutyl]-1,1,1-trifluoromethanesulfonamide], for which the IC50 in data set [1] is 70.1 nM; in data set [2] it was 66.1 nM; in data set [3], 3210 nM. Besides, in data set [5], the “PXR % Activation @ 10 uM” value was determined as 92.3%. The midpoint of the response in data set [5], the EC50, lay at 714 nM.
For `O=S(=O)(N[C@H]1C[C@](c2cc(F)ccc2F)(S(=O)(=O)c2ccc(Cl)cc2)C1)C(F)(F)F` [Example 1, N-[trans-3-[(4-chlorophenyl)sulfonyl]-3-(2,5-difluorophenyl)cyclobutyl]-1,1,1-trifluoromethanesulfonamide], the figures for the 50% inhibitory concentration (IC50) in data set [1], in data set [2] and in data set [3] were 151 nM, 117 nM and 50000 nM, respectively. Further, the EC50 in data set [5] is 1220 nM.
Take `O=S(=O)(NC1CC(c2cc(F)ccc2F)(S(=O)(=O)c2ccc(F)cc2)C1)C(F)(F)F` (stereo not drawn) [Example 7, N-{cis-3-(2,5-difluorophenyl)-3-[(4-fluorophenyl)sulfonyl]cyclobutyl}-1,1,1-trifluoromethanesulfonamide]: the IC50 in data set [1] was 68.4 nM; in data set [2], 57.6 nM; in data set [3] it was 3080 nM. The “PXR % Activation @ 10 uM” value in data set [5] stood at 113.2%. Further, the midpoint of the response in data set [5], the EC50, lay at 766 nM.
Taken in the same sequence, the figures for `O=C(O)CCCN([C@H]1C[C@@](c2cc(F)ccc2F)(S(=O)(=O)c2ccc(Cl)cc2)C1)S(=O)(=O)C(F)(F)F` [Example 10, 4-{[cis-3-[(4-chlorophenyl)sulfonyl]-3-(2,5-difluorophenyl)cyclobutyl][(trifluoromethyl)sulfonyl]amino}butanoic acid] were 35.2 nM, 30.7 nM, 8320 nM, 76.7% and 1240 nM.
For the molecule `COC(=O)CN([C@H]1C[C@@](c2cc(F)ccc2F)(S(=O)(=O)c2ccc(Cl)cc2)C1)S(=O)(=O)C(F)(F)F` [Example 12, Methyl {[cis-3-[(4-chlorophenyl)sulfonyl]-3-(2,5-difluorophenyl)cyclobutyl][(trifluoromethyl)sulfonyl]amino}acetate], the IC50 in data set [1] came to 97.7 nM; in data set [2], 117 nM; in data set [3] it was 13200 nM. Besides, a half-maximal response in data set [5] (EC50) required 1600 nM.
Turning to `C[C@]1(NS(=O)(=O)C(F)(F)F)C[C@@](c2cc(F)ccc2F)(S(=O)(=O)c2ccc(Cl)cc2)C1` [Example 17, N-[cis-3-[(4-chlorophenyl)sulfonyl]-3-(2,5-difluorophenyl)-1-methylcyclobutyl]-1,1,1-trifluoromethanesulfonamide], the figures for the IC50 in data set [1], in data set [2] and in data set [3] were 37.3 nM, 37 nM and 5210 nM, respectively. Moreover, the “PXR % Activation @ 10 uM” value in data set [5] is reported as 74.6%. In data set [5], a half-maximal response (EC50) required 848 nM.
For the molecule `O=S(=O)(N[C@H]1C[C@@](c2cc(Cl)ccc2Cl)(S(=O)(=O)c2ccc(Cl)cc2)C1)C(F)(F)F` [Example 4, N-[cis-3-[(4-chlorophenyl)sulfonyl]-3-(2,5-dichlorophenyl)cyclobutyl]-1,1,1-trifluoromethanesulfonamide], the IC50 in data set [1] is 70.8 nM; in data set [2], 78.2 nM; in data set [3] it was 1940 nM. The “PXR % Activation @ 10 uM” value in data set [5] was 70.7%. A half-maximal effect in data set [5] (EC50) was put at 1960 nM.
Taken in the same sequence, the figures for `O=S(=O)(NC1CC(c2cc(F)ccc2F)(S(=O)(=O)c2ccc(C(F)(F)F)cc2)C1)C(F)(F)F` (stereo not drawn) [Example 5, N-(cis-3-(2,5-difluorophenyl)-3-{[4-(trifluoromethyl)phenyl]sulfonyl}cyclobutyl)-1,1,1-trifluoromethanesulfonamide] were 100 nM, 90.2 nM, 3810 nM, 64.4% and 5200 nM.
